Measured values taken from patent publication US20250073255A1, “USE OF FA-TYPE LIPID COMPOUNDS IN PREPARATION OF NUCLEIC ACID DELIVERY REAGENT AND RELATED PRODUCT” (BEIJING BAISHIKANG PHARMACEUTICAL TECHNOLOGY (BSJPHARMA) …, priority 2021, published 2025).

System: C57BL/6 male mice
Assay: In vivo delivery study of lipid nucleic acid mixture (oral gavage, RT-qPCR of PGY-sRNA-26 in tissues)
Design: species or system mouse
Conditions: for oral delivery of single-stranded sRNA nucleic acids into mouse blood / oral delivery of single-stranded sRNA nucleic acids into mouse brain tissue / oral delivery of single-stranded sRNA nucleic acids into mouse femur / oral delivery of single-stranded sRNA nucleic acids into mouse heart tissue / oral delivery of single-stranded sRNA nucleic acids into mouse intestinal tissue / oral delivery of single-stranded sRNA nucleic acids into mouse kidney tissue / oral delivery of single-stranded sRNA nucleic acids into mouse liver tissue / oral delivery of single-stranded sRNA nucleic acids into mouse lung tissue / oral delivery of single-stranded sRNA nucleic acids into mouse pancreatic tissue / oral delivery of single-stranded sRNA nucleic acids into mouse spleen tissue / oral delivery of single-stranded sRNA nucleic acids into mouse stomach tissue: 100 μg lipid:10 nmol PGY-sRNA-26, sampled after 12 hours; for oral delivery of single-stranded sRNA nucleic acids into mouse heart tissue: vs free uptake group; for oral delivery of single-stranded sRNA nucleic acids into mouse intestinal tissue: intestine; for oral delivery of single-stranded sRNA nucleic acids into mouse pancreatic tissue: pancreas
Summary of the method: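 Lipid (100 μg) and 10 nmol 3'-methylated single-stranded PGY-sRNA-26 were heated at 90 °C for 15 min, then given by oral gavage to mice fasted 12 h. Controls were saline and free sRNA. Blood and tissues were taken at 12 h, and levels were measured by stem-loop RT-qPCR relative to U6.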

Row | SMILES | oral delivery of single-stranded sRNA nucleic acids into mouse blood | oral delivery of single-stranded sRNA nucleic acids into mouse brain tissue | oral delivery of single-stranded sRNA nucleic acids into mouse femur | oral delivery of single-stranded sRNA nucleic acids into mouse heart tissue | oral delivery of single-stranded sRNA nucleic acids into mouse intestinal tissue | oral delivery of single-stranded sRNA nucleic acids into mouse kidney tissue | oral delivery of single-stranded sRNA nucleic acids into mouse liver tissue | oral delivery of single-stranded sRNA nucleic acids into mouse lung tissue | oral delivery of single-stranded sRNA nucleic acids into mouse pancreatic tissue | oral delivery of single-stranded sRNA nucleic acids into mouse spleen tissue | oral delivery of single-stranded sRNA nucleic acids into mouse stomach tissue | overall delivery efficacy: delivering nucleic acids into each tissue and blood tested (100 μg lipid:10 nmol PGY-sRNA-26, all tissues and blood tested)
1 | CCCCCC/C=C\CCCCCCCC(=O)OCCCCCCCCCCCCCCCCC [Lipid 818, heptadecyl (Z)-hexadec-9-enoate] | can effectively orally deliver | can effectively orally deliver | can effectively orally deliver | can effectively orally deliver | can effectively orally deliver | can effectively orally deliver | can effectively orally deliver | can effectively orally deliver | can effectively orally deliver | can effectively orally deliver | can effectively orally deliver | –
2 | CC/C=C\CCOC(=O)[C@H](O)C(C)C [Lipid 816, [(Z)-hex-3-enyl] (2R)-2-hydroxy-3-methylbutanoate] | can effectively orally deliver | can effectively orally deliver | can effectively orally deliver | can effectively orally deliver | can effectively orally deliver | can effectively orally deliver | can effectively orally deliver | can effectively orally deliver | can effectively orally deliver | can effectively orally deliver | can effectively orally deliver | –
3 | CC/C=C\CC1C(=O)CCC1CC(=O)O (centres unmarked) [Lipid 527] | can effectively orally deliver | can effectively orally deliver | can effectively orally deliver | can effectively orally deliver | can effectively orally deliver | can effectively orally deliver | can effectively orally deliver | can effectively orally deliver | – | can effectively orally deliver | can effectively orally deliver | best delivery efficacy
4 | CCCCCCCCCC(N)=O [Lipid 573, Decanamide] | can effectively orally deliver | can effectively orally deliver | can effectively orally deliver | can effectively orally deliver | can effectively orally deliver | – | can effectively orally deliver | – | – | can effectively orally deliver | can effectively orally deliver | –
